Reference: ChEMBL document CHEMBL3817739, “Synthesis and cytotoxic evaluation of several oleanolic aciduracil/thymine conjugates” (Medchemcomm, 2016)
The source made the active and inactive calls. The rule behind the calls is not given here.

Assays:
HepG2 [1] = test: Cytotoxicity against human HepG2 cells assessed as inhibition of cell proliferation after 72 hrs by MTT assay; format: functional, cell-based; settings: HepG2, 72 h
A549 = test: Cytotoxicity against human A549 cells assessed as inhibition of cell proliferation after 72 hrs by MTT assay; format: functional, cell-based; settings: A549, 72 h
[2] = Cytotoxicity against human BGC823 cells assessed as inhibition of cell proliferation after 72 hrs by MTT assay; format: functional, cell-based; settings: BGC-823, 72 h
MCF7 = test: Cytotoxicity against human MCF7 cells assessed as inhibition of cell proliferation after 72 hrs by MTT assay; format: functional, cell-based; settings: MCF7, 72 h
[3] = Cytotoxicity against human PC3 cells assessed as inhibition of cell proliferation after 72 hrs by MTT assay; format: functional, cell-based, PC-3; settings: Homo sapiens, PC-3, 72 h; read-out: IC50
HepG2 [4] = test: Induction of morphological changes in human HepG2 cells assessed as chromatin condensation and fragmentation at 2 to 4 uM after 24 hrs by acridine orange/ethidium bromide double staining based fluorescence microscopy; format: functional, cell-based
HepG2 [5] = test: Induction of apoptosis in human HepG2 cells assessed as karyopyknosis and chromatin condensation at 2 to 4 uM after 24 hrs by Hoechst 33258 staining based fluorescence microscopy; format: functional, cell-based
HepG2 [6] = test: Induction of apoptosis in human HepG2 cells assessed as viable cells at 2 uM after 24 hrs by Annexin V-FITC/propidium iodide staining based flow cytometry (reference value: 93.2%); format: functional; settings: HepG2, 24 h, read-out: Activity
HepG2 [7] = test: Induction of apoptosis in human HepG2 cells assessed as early apoptotic cells at 2 uM after 24 hrs by Annexin V-FITC/propidium iodide staining based flow cytometry (reference value: 1.36%); format: functional
HepG2 [8] = test: Induction of apoptosis in human HepG2 cells assessed as late apoptotic cells at 2 uM after 24 hrs by Annexin V-FITC/propidium iodide staining based flow cytometry (reference value: 2.7%); format: functional
HepG2 [9] = test: Induction of apoptosis in human HepG2 cells assessed as necrotic cells at 2 uM after 24 hrs by Annexin V-FITC/propidium iodide staining based flow cytometry (reference value: 2.7%); format: functional
HepG2 [10] = test: Induction of apoptosis in human HepG2 cells assessed as viable cells at 4 uM after 24 hrs by Annexin V-FITC/propidium iodide staining based flow cytometry (reference value: 93.2%); format: functional; settings: HepG2, 24 h, read-out: Activity
HepG2 [11] = test: Induction of apoptosis in human HepG2 cells assessed as early apoptotic cells at 4 uM after 24 hrs by Annexin V-FITC/propidium iodide staining based flow cytometry (reference value: 1.36%); format: functional
HepG2 [12] = test: Induction of apoptosis in human HepG2 cells assessed as late apoptotic cells at 4 uM after 24 hrs by Annexin V-FITC/propidium iodide staining based flow cytometry (reference value: 2.7%); format: functional
HepG2 [13] = test: Induction of apoptosis in human HepG2 cells assessed as necrotic cells at 4 uM after 24 hrs by Annexin V-FITC/propidium iodide staining based flow cytometry (reference value: 2.7%); format: functional
HepG2 [14] = test: Cell cycle arrest in human HepG2 cells assessed as accumulation at G1 phase at 2 uM after 48 hrs by propidium iodide staining based flow cytometry (reference value: 60.65%); format: functional
HepG2 [15] = test: Cell cycle arrest in human HepG2 cells assessed as accumulation at G2/M phase at 2 uM after 48 hrs by propidium iodide staining based flow cytometry (reference value: 13.83%); format: functional
HepG2 [16] = test: Cell cycle arrest in human HepG2 cells assessed as accumulation at S phase at 2 uM after 48 hrs by propidium iodide staining based flow cytometry (reference value: 25.52%); format: functional
HepG2 [17] = test: Cell cycle arrest in human HepG2 cells assessed as accumulation at G1 phase at 3 uM after 48 hrs by propidium iodide staining based flow cytometry (reference value: 60.65%); format: functional
HepG2 [18] = test: Cell cycle arrest in human HepG2 cells assessed as accumulation at G2/M phase at 3 uM after 48 hrs by propidium iodide staining based flow cytometry (reference value: 13.83%); format: functional
HepG2 [19] = test: Cell cycle arrest in human HepG2 cells assessed as accumulation at S phase at 3 uM after 48 hrs by propidium iodide staining based flow cytometry (reference value: 25.52%); format: functional
HepG2 [20] = test: Cell cycle arrest in human HepG2 cells assessed as accumulation at G1 phase at 4 uM after 48 hrs by propidium iodide staining based flow cytometry (reference value: 60.65%); format: functional
HepG2 [21] = test: Cell cycle arrest in human HepG2 cells assessed as accumulation at G2/M phase at 4 uM after 48 hrs by propidium iodide staining based flow cytometry (reference value: 13.83%); format: functional
HepG2 [22] = test: Cell cycle arrest in human HepG2 cells assessed as accumulation at S phase at 4 uM after 48 hrs by propidium iodide staining based flow cytometry (reference value: 25.52%); format: functional
HepG2 [23] = test: Disruption of mitochondrial membrane potential in human HepG2 cells assessed as mitochondrial membrane potential at 2 uM after 24 hrs by Rhodamine 123 staining based flow cytometry (reference value: 86.2%); format: functional
HepG2 [24] = test: Disruption of mitochondrial membrane potential in human HepG2 cells assessed as mitochondrial membrane potential at 3 uM after 24 hrs by Rhodamine 123 staining based flow cytometry (reference value: 86.2%); format: functional
HepG2 [25] = test: Disruption of mitochondrial membrane potential in human HepG2 cells assessed as mitochondrial membrane potential at 4 uM after 24 hrs by Rhodamine 123 staining based flow cytometry (reference value: 86.2%); format: functional
HepG2 [26] = test: Induction of apoptosis in human HepG2 cells assessed as caspase 3 activation at 4 uM using FITC-DEVD-FMK as probe after 24 hrs by flow cytometry (reference value: 3.3%); format: functional
HepG2 [27] = test: Induction of apoptosis in human HepG2 cells assessed as caspase 9 activation at 4 uM using FITC-LEHD-FMK as probe after 24 hrs by flow cytometry (reference value: 4.4%); format: functional
HepG2 [28] = test: Disruption of mitochondrial membrane potential in human HepG2 cells after 24 hrs by Rhodamine 123 staining based flow cytometry; format: functional, cell-based

CC1(C)CC[C@]2(C(=O)OCCCCCCn3ccc(=O)[nH]c3=O)CC[C@]3(C)C(=CC[C@@H]4[C@@]5(C)CC[C@H](O)C(C)(C)[C@@H]5CC[C@]43C)[C@@H]2C1
IC50 (HepG2 [1]): 3980 nM
IC50 (A549): 3160 nM
IC50 [2]: 1280 nM
IC50 (MCF7): 2750 nM
IC50 [3]: 180 nM
Activity (HepG2 [4]): Active
Activity (HepG2 [5]): Active
viability at 2 µM (HepG2 [6]): 88%
Activity (HepG2 [7]): 1.91%
Activity (HepG2 [8]): 7.75%
Activity (HepG2 [9]): 2.36%
viability at 4 µM (HepG2 [10]): 76.1%
Activity (HepG2 [11]): 1.83%
Activity (HepG2 [12]): 17.7%
Activity (HepG2 [13]): 4.32%
Activity (HepG2 [14]): 92.75%
Activity (HepG2 [15]): 0.74%
Activity (HepG2 [16]): 6.51%
Activity (HepG2 [17]): 88.09%
Activity (HepG2 [18]): 1.73%
Activity (HepG2 [19]): 10.18%
Activity (HepG2 [20]): 82.48%
Activity (HepG2 [21]): 3.25%
Activity (HepG2 [22]): 14.27%
Activity (HepG2 [23]): 77.7%
Activity (HepG2 [24]): 67%
Activity (HepG2 [25]): 49.4%
Activity (HepG2 [26]): 31%
Activity (HepG2 [27]): 27.9%
Activity (HepG2 [28]): Dose-dependent effect
